We go through 23 compounds from patent publication US5420334A, “Inhibitors of farnesyl-protein transferase” (Merck & Co., Inc., priority 1994, dated 1995).

Structures are written as SMILES.

The first test has as its system Ras famesylation.
Assay: not given
As to conditions: cited from earlier work.
Take `CC[C@H](C)C(=O)O[C@H]1CCC=C2C=C[C@H](C)[C@H](CC[C@@H]3C[C@@H](O)CC(=O)O3)[C@H]21` [compactin]: the “Inhibition of Ras famesylation in vivo” value is reported as “Inhibition of Ras famesylation in vivo has been demonstrated”.

Turning to `CC[C@H](C)C(=O)O[C@H]1C[C@@H](C)C=C2C=C[C@H](C)[C@H](CC[C@@H]3C[C@@H](O)CC(=O)O3)[C@H]21` [lovastatin], the “Inhibition of Ras famesylation in vivo” value was “Inhibition of Ras famesylation in vivo has been demonstrated”.

For a further test, the target named is T1, bovine brain FPTase (Bos taurus, UniProt P29702+P49355).
T1 construct: Famesyl-protein transferase (FPTase) from bovine brain; from tissue; host or cells: bovine brain, partially purified (DEAE-Sephacel, N-octyl agarose, mono Q)
The experiment in a line: In vitro inhibition of Ras farnesyl-protein transferase (FPTase). It is filed as biochemical. As to conditions: Ras-CVLS, [3H]FPP, concentration giving 50% inhibition, read-out: IC50, inhibition of RAS farnesylation. The protocol: The intrinsic famesyl-protein transferase (FPTase) activity of representative compounds of this invention was measured by the assay as described below:
Famesyl-protein transferase (FPTase) from bovine brain was chromatographed on DEAE-Sephacel (Pharmacia, 0-0.8M NaCl gradient elution), N-octyl agarose (Sigma, 0-0.6M NaCl gradient elution), and a mono Q HPLC column (Pharmacia, 0-0.3M NaCl gradient). Ras-CVLS (Cys-Val-Leu-Ser) at […], […] [^3 H]FPP, and the indicated compounds were incubated with this partially purified enzyme preparation. FPTase inhibition data is a measurement of the ability of the test compound to inhibit Ras farnesylation in vitro.
Famesyl-protein transferase (FPTase) from bovine brain was chromatographed on DEAE-Sephacel (Pharmacia, 0-0.8M NaCl gradient elution), N-octyl agarose (Sigma, 0-0.6M NaCl gradient elution), and a mono Q HPLC column (Pharmacia, 0-0.3M NaCl gradient). Ras-CVLS at 3.5 µM, 0.25 µM [3H]FPP, and the indicated compounds were incubated with either a partially purified bovine enzyme preparation or a recombinant human enzyme preparation. The FPTase data presented below in Table 1 reflects the ability of the test compound to inhibit RAS famesylation in vitro, as described in Pompliano, et al., Biochemistry 31, 3800 (1992).
*(IC50 is the concentration of the test compound which gives 50%
inhibition of bovine brain FPTase under the described assay conditions)
As for `C/C(=C\Cc1c(O)cc(C)c(C=O)c1O)CC[C@@]1(C)[C@H](C)C(=O)CC[C@@H]1C` [Compound 1, 3-[5-[1(R),2(S),6(S)-trimethyl-5-oxocyclohexyl]-3-methyl-2-pentenyl]-2,4-di hydroxy-6-methylbenzaldehyde], the IC50 worked out at 0.7 µM.

With `C/C(=C\Cc1c(O)cc(C)c(C)c1O)CC[C@@]1(C)[C@H](C)[C@H](O)CC[C@@H]1C` [Compound 17], the IC50 was more than 140 µM.

Consider `C/C(=C\Cc1c(O)c(Cl)c(C)c(C=O)c1O)[C@H](C[C@@]1(C)[C@H](C)C(=O)CC[C@@H]1C)OC(=O)CC(C)C` [Compound 7], for which the IC50 was 6.5 µM.

In the case of `C/C(=C\Cc1c(O[Si](C)(C)C(C)(C)C)cc(C)c(C=O)c1O)CC[C@@]1(C)[C@H](C)C(=O)CC[C@@H]1C` [Compound 19], the IC50 was more than 140 µM. Still for that read-out and setting: as for `Cc1cc(O)c(CCC(C)CC[C@@]2(C)[C@H](C)C(=O)CC[C@@H]2C)c(O)c1C` (some centres unmarked) [Compound 14], the figure is 18.6 µM; as for `COCOc1cc(C)c(C=O)c(OCOC)c1C/C=C(\C)CC[C@@]1(C)[C@H](C)C(=O)CC[C@@H]1C` [Compound 21], more than 50 µM; as for `COc1cc(C)c(C=O)c(O)c1C/C=C(\C)CC[C@@]1(C)[C@H](C)C(=O)CC[C@@H]1C` [Compound 13, 3-[5-[1(R),2(S),6(S)-trimethyl-5-oxocyclohexyl]-3-methyl-2-pentenyl]-2-hydroxy-4-methoxy-6-methylbenzaldehyde], 2 µM. The same measure, in the same setting: as for `C/C(=C\Cc1c(O)cc(C)cc1O)CC[C@@]1(C)[C@H](C)C(=O)CC[C@@H]1C` [Compound 24], the figure is 20 µM. On the same count and under the same terms, with `CC(=O)O[C@@H]1CC(=O)[C@@H](C)[C@](C)(/C=C/C(C)=C/Cc2c(O)cc(C)c(C=O)c2O)[C@H]1C` [Compound 3] the figure was 5.6 µM; with `C/C(=C\Cc1c(O)cc(C)c(CO)c1O)CC[C@@]1(C)[C@H](C)C(=O)CC[C@@H]1C` [Compound 18], 75 µM.

For `CC(=O)O[C@@H](C[C@@]1(C)[C@H](C)C(=O)CC[C@@H]1C)/C(C)=C/Cc1c(O)cc(C)c(C=O)c1O` [Compound 9], the IC50 was found to be 13 µM. Turning to `CC(/C=C/[C@@]1(C)[C@H](C)C(=O)CC[C@@H]1C)=C\Cc1c(O)cc(C)c(C=O)c1O` [Compound 4], the IC50 was determined as 6.5 µM. Same read-out and setting: with `CCC(=O)O[C@@H](C[C@@]1(C)[C@H](C)C(=O)CC[C@@H]1C)/C(C)=C/Cc1c(O)cc(C)c(C=O)c1O` [Compound 8] the figure was 2.2 µM. On the same count and under the same terms, as for `COc1cc(C)c(C=O)c(O)c1C/C=C(C)/C=C/[C@@]1(C)[C@H](C)C(=O)CC[C@@H]1C` [Compound 12], the figure is 31 µM; as for `C/C(=C\Cc1c(O)cc(C)c(C)c1O)CC[C@@]1(C)[C@H](C)C(=O)CC[C@@H]1C` [Compound 16], 30.7 µM. `C/C(=C\Cc1c(O)cc(C)c(C=O)c1O)[C@H](C[C@@]1(C)[C@H](C)C(=O)CC[C@@H]1C)OC(=O)CC(C)C` [Compound 6, 3-[5-[1(R),2(S),6(S)-trimethyl-5-oxocyclohexyl]-3-methyl-4(S)-[3-methylbutanoyloxy]-2-pentenyl]-2,4-dihydroxy-6-methylbenzaldehyde]: the IC50 worked out at 4.6 µM. Still for that read-out and setting: as for `CC(=O)O[C@@H]1CC(=O)[C@@H](C)[C@](C)(/C=C/C(C)=C/Cc2c(O)c(Cl)c(C)c(C=O)c2O)[C@H]1C` [Compound 2], the figure is 2.8 µM; as for `C/C(=C\Cc1c(O)cc(C)c(CO)c1O)CC[C@@]1(C)[C@H](C)[C@H](O)CC[C@@H]1C` [Compound 15], 101 µM.

`CC(/C=C/[C@@]1(C)[C@H](C)C(=O)C=C[C@@H]1C)=C\Cc1c(O)c(Cl)c(C)c(C=O)c1O` [Compound 5]: the IC50 was found to be 15 µM.

In the case of `COC(=O)c1c(C)cc(O)c(C/C=C(\C)CC[C@@]2(C)[C@H](C)C(=O)CC[C@@H]2C)c1O` [Compound 20], the IC50 was more than 140 µM. As for `CC(=O)Oc1cc(C)c(C=O)c(OC(C)=O)c1C/C=C(\C)CC[C@@]1(C)[C@H](C)C(=O)CC[C@@H]1C` [Compound 11], the IC50 is 6.5 µM.
